± gives the standard deviation of the averaged measurements.
Legend:
Test in all cases: level (log10 ratio to DMSO vehicle control); higher = higher biomarker level / cell amount than vehicle control
Conditions in all cases: in DMSO
[1] = compound: NS(=O)(=O)C(F)(F)C(F)(F)C(F)(F)C(F)(F)C(F)(F)C(F)(F)F [Perfluorohexanesulfonamide]
Method: (§1)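 BioMAP Diversity Plus panel of 12 human primary cell co-culture systems (3C, 4H, LPS, SAg, BT, BF4T, BE3C, CASM3C, HDF3CGF, KF3CT, MyoF, Mphg). Compounds were added 1 h before stimulation and left for 24 h (MyoF 48 h; BT 72 h for soluble read-outs or 6 d for IgG). Biomarkers were read by ELISA, cytotoxicity by SRB, PBMC viability and proliferation by Alamar Blue. Each well value was divided by the mean of 8 DMSO control wells on the same plate and log10 transformed; duplicate blinded samples were tested at 4 concentrations.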

[2] = compound: O=C(O)C=CC(F)(C(F)(F)F)C(F)(F)F [3-(Perfluoroisopropyl)-2-propenoic acid]
Method: as §1

[3] = compound: C=C(C)C(=O)OCCC(F)(F)C(F)(F)C(F)(F)C(F)(F)C(F)(F)C(F)(F)F [6:2 Fluorotelomer methacrylate]
Method: as §1

[4] = compound: FC(F)(F)C(F)(F)C(F)(F)C(F)(F)C(F)(F)C(F)(F)CC1CO1 [3-(Perfluorohexyl)-1,2-epoxypropane]
Method: as §1

[5] = compound: NC(=O)C(F)(F)C(F)(F)C(F)(F)C(F)(F)F [Nonafluoropentanamide]
Method: as §1

[6] = compound: O=C(O)C(F)(F)C(F)(F)C(F)(F)C(F)(F)C(F)(F)C(F)(F)C(F)(F)C(F)(F)C(F)(F)C(F)F [11-H-Perfluoroundecanoic acid]
Method: as §1

[7] = compound: O=S(=O)(F)C(F)(F)C(F)(F)C(F)(F)C(F)(F)C(F)(F)C(F)(F)C(F)(F)C(F)(F)F [Perfluorooctanesulfonyl fluoride]
Method: as §1

Test System | level (log10) ([1]; 6700 nM) | level (log10) ([1]; 20000 nM) | level (log10) ([1]; 60000 nM) | level (log10) ([2]; 6700 nM) | level (log10) ([2]; 20000 nM) | level (log10) ([2]; 60000 nM) | level (log10) ([3]; 6700 nM) | level (log10) ([3]; 20000 nM) | level (log10) ([3]; 60000 nM) | level (log10) ([4]; 6700 nM) | level (log10) ([4]; 20000 nM) | level (log10) ([4]; 60000 nM) | level (log10) ([5]; 6700 nM) | level (log10) ([5]; 20000 nM) | level (log10) ([5]; 60000 nM) | level (log10) ([6]; 6700 nM) | level (log10) ([6]; 20000 nM) | level (log10) ([7]; 6700 nM) | level (log10) ([7]; 20000 nM) | level (log10) ([7]; 60000 nM)
KF3CT:CXCL8/IL-8 | -0.039 ± 0.023 | -0.0345 ± 0.0092 | -0.0395 ± 0.03 | 0.001 ± 0.013 | 0.0085 ± 0.028 | 0.018 ± 0.0014 | -0.004 ± 0.0057 | 0.0085 ± 0.011 | -0.007 ± 0.011 | 0.012 ± 0.018 | 0.0175 ± 0.022 | 0.022 ± 0.0042 | -0.0465 ± 0.036 | -0.03 ± 0.014 | -0.0165 ± 0.03 | 0.0005 ± 0.019 | 0.0445 ± 0.012 | 0.001 ± 0.028 | 0.0005 ± 0.025 | 0.007 ± 0.0071
KF3CT:CXCL9/MIG | 0.0005 ± 0.0035 | -0.0075 ± 0.016 | -0.008 ± 0.0057 | -0.0005 ± 0.012 | 0.0005 ± 0.011 | 0 ± 0.0028 | 0.012 ± 0.0042 | 0.01 ± 0.0028 | 0.01 ± 0.02 | 0 | 0.01 ± 0.0057 | 0.0115 ± 0.0021 | 0.006 ± 0.0042 | 0.011 ± 0.0085 | 0.007 ± 0.0099 | -0.006 ± 0.0042 | -0.028 ± 0.0028 | 0.007 ± 0.0057 | -0.007 ± 0.0085 | 0.006 ± 0.0085
KF3CT:CXCL10/IP-10 | -0.012 ± 0.013 | -0.019 ± 0.014 | -0.0875 ± 0.0035 | 0.0105 ± 0.035 | 0.0075 ± 0.032 | 0.0125 ± 0.023 | 0.019 ± 0.0057 | 0.0245 ± 0.013 | 0.031 ± 0.0014 | 0.0285 ± 0.00071 | 0.0305 ± 0.0035 | 0.0295 ± 0.0021 | -0.011 ± 0.0071 | 0.009 ± 0.0042 | -0.001 ± 0.017 | -0.036 ± 0.0057 | -0.211 ± 0.011 | -0.0015 ± 0.0035 | -0.0105 ± 0.00071 | -0.011 ± 0.014
KF3CT:IL-1alpha | 0.026 ± 0.025 | 0.03 ± 0.028 | 0.052 ± 0.02 | -0.0025 ± 0.0064 | 0.0025 ± 0.0092 | 0.001 ± 0.017 | -0.033 ± 0.025 | -0.0395 ± 0.029 | -0.0335 ± 0.026 | -0.0185 ± 0.0078 | 0.0085 ± 0.018 | 0.0015 ± 0.0021 | 0.012 ± 0.0085 | 0.011 | 0.0095 ± 0.0064 | -0.0255 ± 0.00071 | 0.0105 ± 0.04 | -0.0055 ± 0.026 | 0.007 ± 0.013 | -0.0145 ± 0.026
KF3CT:TIMP-2 | -0.01 ± 0.02 | -0.0115 ± 0.0064 | 0.008 ± 0.0057 | -0.01 ± 0.013 | 0.007 ± 0.031 | 0.0205 ± 0.023 | -0.0445 ± 0.0064 | 0.008 ± 0.013 | 0.022 ± 0.038 | -0.0095 ± 0.0064 | -0.014 ± 0.013 | 0.003 ± 0.041 | -0.0245 ± 0.0092 | -0.007 ± 0.011 | 0.011 ± 0.037 | -0.001 ± 0.0071 | -0.012 ± 0.0071 | -0.016 ± 0.016 | -0.0245 ± 0.022 | -0.019 ± 0.038
LPS:CCL2/MCP-1 | -0.011 ± 0.0028 | -0.024 ± 0.018 | -0.102 ± 0.034 | 0.004 ± 0.0085 | -0.0155 ± 0.013 | -0.0015 ± 0.0021 | -0.007 ± 0.05 | -0.014 ± 0.034 | -0.043 | -0.012 ± 0.011 | -0.0055 ± 0.019 | 0.0025 ± 0.0078 | 0.005 ± 0.011 | 0.022 ± 0.035 | 0.0325 ± 0.039 | -0.009 ± 0.0085 | -0.022 ± 0.0099 | 0.0005 ± 0.015 | -0.012 ± 0.016 | 0.0145 ± 0.028

Reference: the supplement of paper PMC10331698
